Values quoted from earlier work as cited in patent US20120219597A1, “PHARMACEUTICAL FORMULATIONS FOR INDIBULIN” (ZIOPHARM Oncology, Inc., priority 2009, published 2012).

Experiments:
[1] = in water, methanol, ethanol or 2-propanol
[2] = pure indibulin

For `O=C(Nc1ccncc1)C(=O)c1cn(Cc2ccc(Cl)cc2)c2ccccc12` [indibulin], the solubility [1] is given as “practically insoluble” and the bioavailability [2] is given as “low”.
